Among the data in US4346099A, “Carboxy-imidazole derivatives, compositions and use” (Ono Pharmaceutical Co., Ltd., priority 1981, dated 1982) are IC50 values, retold here.

In general, IC50 refers to the concentration at which inhibition is half-maximal.

Structures can show the parent of a compound that is named as a salt.

The assay deals with T1, thromboxane synthetase from rabbit platelet microsomes (Oryctolagus cuniculus, UniProt G1TAZ9).
T1 construct: thromboxane synthetase from rabbit platelet microsomes; from tissue; host or cells: rabbit platelet microsomes
T1 sequence (G1TAZ9 1-530): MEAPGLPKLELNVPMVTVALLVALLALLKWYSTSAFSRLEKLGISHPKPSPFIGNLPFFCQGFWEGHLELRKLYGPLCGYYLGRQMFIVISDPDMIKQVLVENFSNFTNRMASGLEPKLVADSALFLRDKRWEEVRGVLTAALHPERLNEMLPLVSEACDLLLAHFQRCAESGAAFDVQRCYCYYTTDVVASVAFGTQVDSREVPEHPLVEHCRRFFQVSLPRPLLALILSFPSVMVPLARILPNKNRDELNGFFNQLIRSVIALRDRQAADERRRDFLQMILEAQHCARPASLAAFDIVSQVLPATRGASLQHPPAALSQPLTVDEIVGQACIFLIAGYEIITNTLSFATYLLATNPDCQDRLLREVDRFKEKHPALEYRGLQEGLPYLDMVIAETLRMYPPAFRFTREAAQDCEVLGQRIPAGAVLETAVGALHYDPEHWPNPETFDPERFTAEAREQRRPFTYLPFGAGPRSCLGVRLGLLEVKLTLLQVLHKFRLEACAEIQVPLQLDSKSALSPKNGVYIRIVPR
Kind of assay: inhibition of thromboxane synthetase from rabbit platelet microsomes (standard laboratory tests). The assay is classed as biochemical.

`O=C(O)C1(CCCCCCn2ccnc2)CCCCC1` [1-(7-carboxy-7,7-pentanoheptyl)imidazole hydrochloride] returned an IC50 of 46 nM. This lies in the double-digit nanomolar range. For the compound `O=C(O)C(CCCCCCn1ccnc1)c1ccccc1` (centres unmarked) [1-(7-carboxy-7-phenylheptyl)imidazole hydrochloride], half-maximal inhibition (IC50) required 38 nM.
